Test [1] has as its target proMMP13(1-268) (SEQ ID NO:7) (Homo sapiens, UniProt P45452). The test is described as follows: ThermoFluor binding assay with proMMP13(1-268). Conditions: pH 7.0. Set-up: 6xHis (C); made in house. The essentials: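 Thermal shift binding with 3.5 μM protein and 25 μM 1,8-ANS in 50 mM HEPES pH 7.0, 100 mM NaCl, 0.001% Tween-20, 2.5 mM MgCl2, 300 μM CaCl2. Samples were heated 40 to 90 °C at 1 °C/min, fluorescence read at 500 nm. Tm shifts across an 11-point DMSO dilution series were fitted with DSC-derived thermodynamic parameters.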

Test [2] has as its target T1, proMMP9(67-444;ΔFnII) (SEQ ID NO:5) (Homo sapiens, UniProt P14780, DEL216-390).
T1 construct: start methionine (N); made in house; host or cells: E. coli BL21(DE3) RIL
T1 sequence (P14780 with tags, fused parts or gaps DEL216-390): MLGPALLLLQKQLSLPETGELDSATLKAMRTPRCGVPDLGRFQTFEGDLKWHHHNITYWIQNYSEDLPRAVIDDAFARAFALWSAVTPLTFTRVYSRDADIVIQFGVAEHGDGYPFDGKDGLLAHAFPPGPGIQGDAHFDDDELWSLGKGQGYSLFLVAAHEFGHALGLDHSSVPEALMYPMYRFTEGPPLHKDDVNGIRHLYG
In words: ThermoFluor binding assay with proMMP9(67-444;ΔFnII). Conditions: pH 7.0. In a few lines:
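Thermal shift binding with 3.5 μM proMMP9(67-444;ΔFnII) and 50 μM 1,8-ANS in 50 mM HEPES pH 7.0, 100 mM NaCl, 2.5 mM MgCl2, 300 μM CaCl2, 0.001% Tween-20, with serially diluted compound. Heated 40 to 90° C at 1° C/min; fluorescence-derived Tm fitted using DSC/ThermoFluor thermodynamic parameters.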
On the technique in general: In DSF a fluorescence change marks the thermal transition of the protein.

The target in test [3] is T2, proMMP9(20-445;ΔFnII) (SEQ ID NO:6) (Homo sapiens, UniProt P14780, DEL216-390).
T2 construct: start methionine (N); made in house; host or cells: E. coli BL21(DE3) RIL
T2 sequence (P14780 with tags, fused parts or gaps DEL216-390): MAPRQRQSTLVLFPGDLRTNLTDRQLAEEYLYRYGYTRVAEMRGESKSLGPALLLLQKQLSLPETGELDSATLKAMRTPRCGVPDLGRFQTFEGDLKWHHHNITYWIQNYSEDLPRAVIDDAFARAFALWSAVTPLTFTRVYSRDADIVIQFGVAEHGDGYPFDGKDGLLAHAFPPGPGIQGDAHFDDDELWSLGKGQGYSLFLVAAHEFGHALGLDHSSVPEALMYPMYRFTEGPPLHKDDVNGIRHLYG
The test is described as follows: ThermoFluor binding assay with proMMP9(20-445;ΔFnII). As to conditions: pH 7.0. In a few lines:
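proMMP9(20-445;ΔFnII) at 2.8 μM with 50 μM 1,8-ANS in 50 mM HEPES pH 7.0, 100 mM NaCl, 0.001% Tween-20, 2.5 mM MgCl2, 300 μM CaCl2; compounds serially diluted in DMSO. Heated 40–90 °C at 1 °C/min, fluorescence read at 500±25 nm. Tm fit by standard equations; binding fit using DSC/TF-derived thermodynamic parameters.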

In test [4] the target is T3, full-length proMMP9(1-707) (SEQ ID NO:1) (Homo sapiens, UniProt P14780, R574P).
T3 construct: made in house; host or cells: HEK293 (proMMP9, secreted); E. coli (MMP3)
The test is described as follows: proMMP9/MMP3 P126 Activation Assay. The format is biochemical. As to conditions: 20 nM proMMP9, 20 nM MMP3, 80 min 37° C. How it is done:
The reaction volume was 50 μL. […] Reactivity of residual MMP3 towards P-126 substrate was minimal under these conditions.

Structures are written as SMILES. Structures can show the parent of a compound that is named as a salt.

T3 sequence (P14780 20-707 R574P): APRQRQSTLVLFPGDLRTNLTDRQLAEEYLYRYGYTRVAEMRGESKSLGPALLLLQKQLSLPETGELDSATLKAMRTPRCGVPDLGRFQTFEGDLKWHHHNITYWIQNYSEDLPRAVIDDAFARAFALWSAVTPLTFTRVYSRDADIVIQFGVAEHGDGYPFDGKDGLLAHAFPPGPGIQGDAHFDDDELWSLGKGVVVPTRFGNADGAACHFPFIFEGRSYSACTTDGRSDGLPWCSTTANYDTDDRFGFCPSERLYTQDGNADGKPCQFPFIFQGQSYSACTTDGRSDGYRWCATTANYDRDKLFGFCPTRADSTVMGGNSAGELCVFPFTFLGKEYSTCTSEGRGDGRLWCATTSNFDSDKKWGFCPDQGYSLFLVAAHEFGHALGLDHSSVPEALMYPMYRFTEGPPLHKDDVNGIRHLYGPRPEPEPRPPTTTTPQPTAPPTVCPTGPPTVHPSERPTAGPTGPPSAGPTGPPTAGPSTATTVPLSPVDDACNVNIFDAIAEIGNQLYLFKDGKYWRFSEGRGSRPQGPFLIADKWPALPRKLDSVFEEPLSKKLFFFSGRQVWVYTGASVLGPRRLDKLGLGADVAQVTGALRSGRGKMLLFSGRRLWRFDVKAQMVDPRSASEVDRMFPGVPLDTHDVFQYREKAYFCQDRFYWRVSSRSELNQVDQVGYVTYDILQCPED

As usually defined, the Kd is the concentration at which binding is half-saturated. Low values mean a tighter complex, high ones a looser complex. By IC50 is commonly meant the point on the concentration scale where inhibition reaches its midpoint. For `COc1ccc([N+](=O)[O-])cc1Nc1nc(-c2sc(NC(C)=O)nc2C)cs1` [Example 68, N-[2-(2-Methoxy-5-nitro-phenylamino)-4′-methyl-[4,5′]bithiazolyl-2′-yl]-acetamide.TFA], the Kd was 8400 nM in test [1], 550 nM in test [2] and 320 nM in test [3]. The half-maximal inhibitory concentration (IC50) in test [4] is 97 nM.
With `COc1ccc(N)cc1Nc1nc(-c2sc(NC(C)=O)nc2C)cs1` [Example 69, N-[2-(5-Amino-2-methoxy-phenylamino)-4′-methyl-[4,5′]bithiazolyl-2′-yl]-acetamide], the values for the Kd in test [1], in test [2] and in test [3] were 25000 nM, 1100 nM and 4800 nM, respectively. Also, the IC50 in test [4] came to 1400 nM.
`CCOc1ccc(S(N)(=O)=O)cc1Nc1nc(-c2sc(C)nc2C)cs1` [Example 70, 3-(2′,4′-Dimethyl-[4,5′]bithiazolyl-2-ylamino)-4-ethoxy-benzenesulfonamide.HCl]: the figures for the Kd in test [1], in test [2] and in test [3] were 1100 nM, 410 nM and 250 nM, respectively. Further, it took 460 nM to reach half-maximal inhibition in test [4] (IC50).
The matching figures for `Cc1nc(N)sc1-c1csc(Nc2cc(C#N)ccc2OC(C)C)n1` [Example 71, 3-(2′-Amino-4′-methyl-[4,5′]bithiazolyl-2-ylamino)-4-isopropoxy-benzonitrile.HBr]: 42 nM, 95 nM, 280 nM and 870 nM.
As to `COc1ccc(S(C)(=O)=O)cc1Nc1nc(-c2sc(NC(C)=O)nc2C)cs1` [Example 74, N-[2-(5-Methanesulfonyl-2-methoxy-phenylamino)-4′-methyl-[4,5]bithiazolyl-2′-yl]acetamide.HBr], the figures for the Kd in test [1], in test [2] and in test [3] were 2400 nM, 500 nM and 1800 nM, respectively. In test [4], this compound gave a half-inhibitory concentration (IC50) of 2500 nM.
The corresponding values for `COc1ccc(S(C)(=O)=O)cc1Nc1nc(-c2sc(N)nc2C)cs1` [Example 75, N^2-(5-Methanesulfonyl-2-methoxy-phenyl)-4′-methyl-[4,5′]bithiazolyl-2,2′-diamine.HBr] are 1500 nM, 600 nM, 1100 nM and 1600 nM.
The corresponding values for `Cc1nc(C)c(-c2csc(Nc3cc(C(=O)O)ccc3OC(C)C)n2)s1` [Example 76, 3-(2′,4′-Dimethyl-[4,5′]bithiazolyl-2-ylamino)-4-isopropoxy-benzoic acid] are 370 nM, 780 nM, 570 nM and 430 nM.
In the case of `CCOc1ccc(-c2ncco2)cc1Nc1nc(-c2sc(N)nc2C)cs1` [Example 79, N^2-(2-Ethoxy-5-oxazol-2-yl-phenyl)-4′-methyl-[4,5′]bithiazolyl-2,2′diamine.HBr], the dissociation constant Kd in test [1] turned out to be 240 nM; in test [2], 52 nM; in test [3], 1200 nM. This compound came in with an IC50 in test [4] of 550 nM.
The matching figures for `CCOc1ccc(-c2ncco2)cc1Nc1nc(-c2sc(C)nc2C)cs1` [Example 80, (2′,4′-Dimethyl-[4,5′]bithiazolyl-2-yl)-(2-ethoxy-5-oxazol-2-yl-phenyl)-amine.TFA]: 3600 nM, 1800 nM, 23000 nM and 650 nM.
For `CCOC(=O)c1ccc(OCC)c(Nc2nc(-c3sc(N)nc3C)cs2)c1` [Example 81, 3-(2′-Amino-4′-methyl-[4,5′]bithiazolyl-2-ylamino)-4-ethoxy-benzoic acid ethyl ester.TFA], the values for the Kd in test [1], in test [2] and in test [3] were 370 nM, 620 nM and 520 nM, respectively. In test [4], this compound gave a half-maximal inhibitory concentration (IC50) of 640 nM.
As for `CCOC(=O)c1ccc(OCC)c(Nc2nc(-c3sc(NC(C)=O)nc3C)cs2)c1` [Example 83, 3-(2′-Acetylamino-4′-methyl-[4,5′]bithiazolyl-2-ylamino)-4-ethoxy-benzoic acid ethyl ester.HBr], the Kd was found to be 1500 nM in test [1], 490 nM in test [2] and 3900 nM in test [3]. Also, the IC50 in test [4] was 480 nM.

The values are drawn from patent US20120129842A1, “BISTHIAZOLE INHIBITORS OF PRO-MATRIX METALLOPROTEINASE ACTIVATION” (priority 2010, published 2012).
